Experimental data reported in patent publication US20240383886A1, “Protein Tyrosine Phosphatase Degraders and Methods of Use Thereof” (CALICO LIFE SCIENCES LLC, priority 2019, published 2024).

Assays:
[1] = biological target: T1, PTPN2 (Homo sapiens, UniProt P17706); test: HiBiT-Degradation 293T.109 PTPN2 (Nano-Glo HiBiT Lytic Assay); type: cell-based; conditions: 293T.109 (HiBiT-PTPN2) cells, 24.0 hours
T1 construct: expressed in transfected cells; host or cells: 293T (293T.109 HiBiT-PTPN2 line; parental 293T WT from ATCC)
T1 sequence (P17706 1-415): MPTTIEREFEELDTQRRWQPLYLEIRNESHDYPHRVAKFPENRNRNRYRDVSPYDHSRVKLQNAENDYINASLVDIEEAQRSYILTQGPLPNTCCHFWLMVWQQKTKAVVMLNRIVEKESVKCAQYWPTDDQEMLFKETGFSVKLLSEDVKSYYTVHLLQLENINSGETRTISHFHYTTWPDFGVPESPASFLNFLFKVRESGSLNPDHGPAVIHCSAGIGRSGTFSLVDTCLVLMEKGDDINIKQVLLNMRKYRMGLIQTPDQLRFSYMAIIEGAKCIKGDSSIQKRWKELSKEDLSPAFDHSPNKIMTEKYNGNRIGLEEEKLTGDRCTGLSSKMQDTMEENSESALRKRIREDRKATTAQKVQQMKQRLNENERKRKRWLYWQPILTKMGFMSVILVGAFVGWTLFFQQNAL
Method in brief: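 Luminescence from a lytic HiBiT read gave PTPN2 levels after 24 h compound exposure at 37° C. Compounds were tested at 11 half-log points from a 10 μM top concentration, in duplicate. The cells were 293T engineered with an N-terminal HiBiT–PTPN2 fusion, plated at 5000 per well, with untreated wells as negative control and no-reagent wells as positive control.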

[2] = system: PTPN2; test: HiBiT-Degradation B16F10.4 PTPN2; type: cell-based; conditions: B16F10.4 cells, 24.0 hours

Row | SMILES | DC50 [1] [nM] | DC50 [2] [nM]
1 | Cn1c(=O)n(C2CCC(=O)NC2=O)c2ccc(C3CCN(CC(=O)Nc4ccc5c(F)c(N6CC(=O)NS6(=O)=O)c(O)cc5c4)CC3)cc21 (centres unmarked) [Example 22, N-(6-(1,1-dioxido-4-oxo-1,2,5-thiadiazolidin-2-yl)-5-fluoro-7-hydroxynaphthalen-2-yl)-2-(4-(1-(2,6-dioxopiperidin-3-yl)-3-methyl-2-oxo-2,3-dihydro-1H-benzo[d]imidazol-5-yl)piperidin-1-yl)acetamide] | < 10 | 50 to 200
2 | O=C(CN1CCC(c2ccc(NC3CCC(=O)NC3=O)cc2F)CC1)NCCOc1ccc2cc(O)c(N3CC(=O)NS3(=O)=O)c(F)c2c1 (centres unmarked) [Example 10, 2-[4-[4-[(2,6-dioxo-3-piperidyl)amino]-2-fluoro-phenyl]-1-piperidyl]-N-[2-[[8-fluoro-6-hydroxy-7-(1,1,4-trioxo-1,2,5-thiadiazolidin-2-yl)-2-naphthyl]oxy]ethyl]acetamide] | 50 to 200 | ≥ 1000
3 | Cn1c(=O)n(C2CCC(=O)NC2=O)c2ccc(C3CCN(CC(=O)N4CCC[C@@H](COc5ccc6cc(O)c(N7CC(=O)NS7(=O)=O)c(F)c6c5)C4)CC3)cc21 (stereo partly drawn) [Example 130, 3-[5-[1-[2-[(3R)-3-[[8-fluoro-6-hydroxy-7-(1,1,4-trioxo-1,2,5-thiadiazolidin-2-yl)-2-naphthyl]oxymethyl]-1-piperidyl]-2-oxo-ethyl]-4-piperidyl]-3-methyl-2-oxo-benzimidazol-1-yl]piperidine-2,6-dione] | 50 to 200 | 50 to 200
4 | Cn1c(=O)n(C2CCC(=O)NC2=O)c2ccc(N3CCC(CC(=O)Nc4ccc5c(F)c(N6CC(=O)NS6(=O)=O)c(O)cc5c4)CC3)cc21 (centres unmarked) [Example 78, N-(6-(1,1-dioxido-4-oxo-1,2,5-thiadiazolidin-2-yl)-5-fluoro-7-hydroxynaphthalen-2-yl)-2-(1-(1-(2,6-dioxopiperidin-3-yl)-3-methyl-2-oxo-2,3-dihydro-1H-benzo[d]imidazol-5-yl)piperidin-4-yl)acetamide] | 10 to 50 | 10 to 50
5 | Cn1c(=O)n(C2CCC(=O)NC2=O)c2ccc(N3CCC(OCC(=O)Nc4ccc5c(F)c(N6CC(=O)NS6(=O)=O)c(O)cc5c4)CC3)cc21 (centres unmarked) [Example 84, 2-[[1-[1-(2,6-dioxo-3-piperidyl)-3-methyl-2-oxo-benzimidazol-5-yl]-4-piperidyl]oxy]-N-[5-fluoro-7-hydroxy-6-(1,1,4-trioxo-1,2,5-thiadiazolidin-2-yl)-2-naphthyl]acetamide] | 10 to 50 | 50 to 200
6 | Cn1c(=O)n(C2CCC(=O)NC2=O)c2ccc(C3CN(CC(=O)Nc4ccc5c(F)c(N6CC(=O)NS6(=O)=O)c(O)cc5c4)C3)cc21 (centres unmarked) [Example 160, 2-[3-[1-(2,6-dioxo-3-piperidyl)-3-methyl-2-oxo-benzimidazol-5-yl]azetidin-1-yl]-N-[5-fluoro-7-hydroxy-6-(1,1,4-trioxo-1,2,5-thiadiazolidin-2-yl)-2-naphthyl]acetamide] | 10 to 50 | 200 to 1000
7 | Cn1c(=O)n(C2CCC(=O)NC2=O)c2ccc(C3CCN(CC(=O)N4CC(Oc5ccc6cc(O)c(N7CC(=O)NS7(=O)=O)c(F)c6c5)C4)CC3(F)F)cc21 (centres unmarked) [Example 80, 3-[5-[3,3-difluoro-1-[2-[3-[[8-fluoro-6-hydroxy-7-(1,1,4-trioxo-1,2,5-thiadiazolidin-2-yl)-2-naphthyl]oxy]azetidin-1-yl]-2-oxo-ethyl]-4-piperidyl]-3-methyl-2-oxo-benzimidazol-1-yl]piperidine-2,6-dione] | 10 to 50 | 50 to 200
8 | Cn1c(=O)n(C2CCC(=O)NC2=O)c2ccc(C3CCN(CCCCOc4ccc5cc(O)c(N6CC(=O)NS6(=O)=O)c(F)c5c4)CC3)cc21 (centres unmarked) [Example 128, 3-[5-[1-[4-[[8-fluoro-6-hydroxy-7-(1,1,4-trioxo-1,2,5-thiadiazolidin-2-yl)-2-naphthyl]oxy]butyl]-4-piperidyl]-3-methyl-2-oxo-benzimidazol-1-yl]piperidine-2,6-dione] | 50 to 200 | 200 to 1000
9 | Cn1c(=O)n(C2CCC(=O)NC2=O)c2ccc(C3CCN(CC(=O)N4CC=C(c5ccc6cc(O)c(N7CC(=O)NS7(=O)=O)c(F)c6c5)C4)CC3)cc21 (centres unmarked) [Example 88, 3-[5-[1-[2-[3-[8-fluoro-6-hydroxy-7-(1,1,4-trioxo-1,2,5-thiadiazolidin-2-yl)-2-naphthyl]-2,5-dihydropyrrol-1-yl]-2-oxo-ethyl]-4-piperidyl]-3-methyl-2-oxo-benzimidazol-1-yl]piperidine-2,6-dione] | 50 to 200 | 50 to 200
10 | O=C(CN1CCC(n2cc(CNc3cccc4c3C(=O)N(C3CCC(=O)NC3=O)C4=O)nn2)CC1)NCCOc1ccc2cc(O)c(N3CC(=O)NS3(=O)=O)c(F)c2c1 (centres unmarked) [Example 40] | 200 to 1000 | ≥ 1000
11 | Cn1c(=O)n(C2CCC(=O)NC2=O)c2cccc(C3CCN(CCOCCC(=O)NCCOc4ccc5cc(O)c(N6CC(=O)NS6(=O)=O)c(F)c5c4)CC3)c21 (centres unmarked) [Example 39] | ≥ 1000 | ≥ 1000
12 | Cn1nc(C2CCC(=O)NC2=O)c2ccc([C@H]3CC[C@@H](CC(=O)Nc4ccc5c(F)c(N6CC(=O)NS6(=O)=O)c(O)cc5c4)CC3)cc21 (stereo partly drawn) [Example 180, N-(6-(1,1-dioxido-4-oxo-1,2,5-thiadiazolidin-2-yl)-5-fluoro-7-hydroxynaphthalen-2-yl)-2-((cis)-4-(3-(2,6-dioxopiperidin-3-yl)-1-methyl-1H-indazol-6-yl)cyclohexyl)acetamide] | 10 to 50 | 50 to 200
13 | Cn1c(=O)n(C2CCC(=O)NC2=O)c2ccc(N3CCC(C4CCN(C(=O)COc5ccc6cc(O)c(N7CC(=O)NS7(=O)=O)c(F)c6c5)CC4)CC3)cc21 (centres unmarked) [Example 109, 3-[5-[4-[1-[2-[[8-fluoro-6-hydroxy-7-(1,1,4-trioxo-1,2,5-thiadiazolidin-2-yl)-2-naphthyl]oxy]acetyl]-4-piperidyl]-1-piperidyl]-3-methyl-2-oxo-benzimidazol-1-yl]piperidine-2,6-dione] | 200 to 1000 | 50 to 200
14 | O=C(CCOCCOCCNC(=O)CNc1cccc2c1CN(C1CCC(=O)NC1=O)C2=O)NCCOc1ccc2cc(O)c(N3CC(=O)NS3(=O)=O)c(F)c2c1 (centres unmarked) [Example 46] | ≥ 1000 | ≥ 1000
15 | Cn1c(=O)n(C2CCC(=O)NC2=O)c2ccc(C3CCN(C(=O)NCCOc4ccc5cc(O)c(N6CC(=O)NS6(=O)=O)c(F)c5c4)CC3)cc21 (centres unmarked) [Example 31] | 200 to 1000 | ≥ 1000
16 | Cn1c(=O)n(C2CCC(=O)NC2=O)c2ccc(C3CCN(CCC(=O)NCCOc4ccc5cc(O)c(N6CC(=O)NS6(=O)=O)c(F)c5c4)CC3)cc21 (centres unmarked) [Example 6, N-(2-((7-(1,1-dioxido-4-oxo-1,2,5-thiadiazolidin-2-yl)-8-fluoro-6-hydroxynaphthalen-2-yl)oxy)ethyl)-3-(4-(1-(2,6-dioxopiperidin-3-yl)-3-methyl-2-oxo-2,3-dihydro-1H-benzo[d]imidazol-5-yl)piperidin-1-yl)propanamide] | 50 to 200 | ≥ 1000
17 | Cn1c(=O)n(C2CCC(=O)NC2=O)c2ccc(N3CCC(CC(=O)N4CCC(c5ccc6cc(O)c(N7CC(=O)NS7(=O)=O)c(F)c6c5)CC4)CC3)cc21 (centres unmarked) [Example 124, 3-[5-[4-[2-[4-[8-fluoro-6-hydroxy-7-(1,1,4-trioxo-1,2,5-thiadiazolidin-2-yl)-2-naphthyl]-1-piperidyl]-2-oxo-ethyl]-1-piperidyl]-3-methyl-2-oxo-benzimidazol-1-yl]piperidine-2,6-dione] | 200 to 1000 | 200 to 1000
18 | O=C1CCC(N2Cc3c(NCc4cnn(CCC(=O)Nc5ccc6c(F)c(N7CC(=O)NS7(=O)=O)c(O)cc6c5)c4)cccc3C2=O)C(=O)N1 (centres unmarked) [Example 13, 3-[4-[[[2-(2,6-dioxo-3-piperidyl)-1-oxo-isoindolin-4-yl]amino]methyl]pyrazol-1-yl]-N-[5-fluoro-7-hydroxy-6-(1,1,4-trioxo-1,2,5-thiadiazolidin-2-yl)-2-naphthyl]propanamide] | 50 to 200 | 200 to 1000
19 | O=C1CCC(N2C(=O)c3cccc(NCc4cn(C5CN(CC(=O)Nc6ccc7c(F)c(N8CC(=O)NS8(=O)=O)c(O)cc7c6)C5)nn4)c3C2=O)C(=O)N1 (centres unmarked) [Example 58] | 200 to 1000 | ≥ 1000
20 | O=C1CCC(N2C(=O)c3ccc(OCc4cn(CCC(=O)Nc5ccc6c(F)c(N7CC(=O)NS7(=O)=O)c(O)cc6c5)nn4)cc3C2=O)C(=O)N1 (centres unmarked) [Example 60] | 200 to 1000 | 200 to 1000
21 | O=C1CCC(N2Cc3c(NCC(=O)N4CCC(C(=O)Nc5ccc6c(F)c(N7CC(=O)NS7(=O)=O)c(O)cc6c5)CC4)cccc3C2=O)C(=O)N1 (centres unmarked) [Example 65] | 200 to 1000 | 200 to 1000
22 | O=C1CCC(N2C(=O)c3cccc(NCc4cnn(CCC(=O)Nc5ccc6c(F)c(N7CC(=O)NS7(=O)=O)c(O)cc6c5)c4)c3C2=O)C(=O)N1 (centres unmarked) [Example 12, 3-[4-[[[2-(2,6-dioxo-3-piperidyl)-1,3-dioxo-isoindolin-4-yl]amino]methyl]pyrazol-1-yl]-N-[5-fluoro-7-hydroxy-6-(1,1,4-trioxo-1,2,5-thiadiazolidin-2-yl)-2-naphthyl]propanamide] | 200 to 1000 | ≥ 1000
